# Key:
# [1] = Single dose PK (AUCinf) in Phase 1 studies, effect of drug load on Compound 1 exposure and variability; type: in vivo, human; details: for AUC(0-inf): human, in vivo, oral, fasted, healthy volunteers, read-out: Mean (% CV) Compound 1 AUCinf
# Source text: Part A: prespecified cohorts (Cohorts 1-3): Randomized, partially blind, placebo-controlled, single- and multiple-doses with staggered dose-escalations. 60 unique subjects; 15 per cohort (12 Compound 1, 3 placebo-to-match (“PTM”))
# Part A (Single- and Multiple-Ascending Doses, Pre-Specified Cohorts) proceeded in 4 staggered, pre-specified, dose-escalation cohorts and were governed by study specific stopping criteria. Within each cohort, 15 unique subjects were randomized 4:1 to receive blinded Compound 1 (N=12) or PTM (N=3). All study drugs in Part A were administered in a fasted state. Within each cohort, dose escalation from single-dose (Period 1) to multiple-dose (Period 2) were permitted after evaluation of cumulative blinded safety data up to and through Day 3 of the same cohort.
# Fasted State Dosing: Study drug(s) were administered at approximately the same time each day following an overnight fast (no food or drinks except water, for at least 10 hours). Subjects continued to fast until after collection of the 2-hour PK sample, relative to study drug dosing.
# (§1) Treatment A: Single dose of SEL 18 mg (1×18 mg tablet)+Compound 1 30 mg (1×30 mg tablet) coadministered orally in the morning within 5 minutes of completing a high-fat meal Treatment C: Single dose of Compound 1 30 mg (1×30 mg tablet) administered orally in the morning in the fasted state
# (§2) Fasted Administration (Treatment C): Study drug(s) were administered in the morning following an overnight fast (no food or drinks except water for at least 10 hours). Subjects continued to fast until after collection of the 4-hour PK sample, relative to (first) study drug dosing. Additionally, subjects were restricted from water consumption 1 hour before until 2 hours after each study drug dosing, except for the 240 mL given with each study drug administration. Water may be consumed by subjects following the 2-hour blood draw for the remainder of the collection period. A meal (standardized lunch) was provided to subjects after the 4 hour postdose blood draw.
# Eligible subjects received the following treatment: Single dose of 100 mg Compound 1 (1×100 mg tablet), administered orally in the morning on Day 1 following an overnight fast.
# Each dose of study drug was administered in the morning on Day 1 with 240 mL of still (non-carbonated) water following an overnight fast (no food or drinks except water, for at least 10 hours). Subjects continued to fast and were restricted from food intake until after collection of the 4-hour blood draw. Additionally, subjects were restricted from consumption of water or other fluids 1 hour before until 2 hours after dosing, except for the 240 mL given with the study treatment.
# Cohort 10 (Compound 1 100 mg, formulation 9 in Table 3):
# Treatment F: Single dose of Compound 1 (1×100 mg tablet) administered orally in the morning in the fasted state.
# (§3) Compound 1 was administered in the morning following an overnight fast (no food or drinks except water for at least 10 hours). Subjects continued to fast until after collection of the 4-hour PK sample, relative to the (first) study drug dosing. Additionally, subjects were restricted from water consumption 1 hour before until 2 hours after each study drug dosing, except for the 240 mL given with each study drug administration. Water was optionally consumed by subjects following the 2-hour blood draw for the remainder of the collection period. A meal (standardized lunch) is provided to subjects after the 4-hour post-dose blood draw.
# Single dose pharmacokinetic exposure parameters (AUCinf) of Compound 1 from multiple Phase 1 studies in healthy volunteers which utilized various drug loads of Compound 1 were compared to determine if Compound 1 drug load impacted the variability and/or absolute value of Compound 1 systemic exposure.
# [2] = Single dose PK (AUCinf) in Phase 1 studies, effect of meal type on Compound 1 exposure and variability; type: in vivo, human; details: for AUC(0-inf): human, in vivo, oral
# Method: Part B (Adaptive Cohorts) is as follows: Based on available safety, pharmacokinetic (“PK”), and/or pharmacodynamic (“PD”) data from Part A, total daily doses for Part B (Cohorts 5 and 8) were chosen between 1 and 600 mg as well as frequency of dosing (once daily or twice a day) and meal conditions for dosing (fasted, low fat, moderate fat, or high fat meal). Once determined, dose level, frequency of dosing, and meal conditions were consistent within a cohort.
# Fed State Dosing: Study drug(s) were administered at approximately the same time each day and within 5 minutes of completing a standardized meal. The meal was initiated 30 minutes prior to study drug administration. Subjects fasted until after collection of the 4-hour PK sample, relative to study drug dosing. Meal fat content (low fat, moderate fat, or high fat) was determined based on available data from […] cohorts.
# as §1
# Treatment I: Single dose of Compound 1 30 mg (1×30 mg tablet) administered orally in the morning within 5 minutes of completing a light meal
# as §2
# Light Meal Administration (Treatment I): Study drug(s) were administered with food and with 240 mL of water. Following an overnight fast (no food or drinks except water for at least 10 hours), a meal was initiated 30 minutes prior to study drug administration. The dose was administered at or within 5 minutes of the subjects completing (100%) of the provided light meal containing ˜400 kcal with ˜20% of the calories from fat. Subjects fasted for 4 hours after study drug administration. A meal (standardized lunch) was provided to subjects after the 4-hour post-dose blood draw. Additionally, water and other fluids was withheld 1 hour before until 2-hours after dose administration other than the water provided with dosing and beverages provided with the standardized meal (where applicable). Water may be consumed by subjects following the 2-hour blood draw for the remainder of the collection period.
# High-Fat Meal Administration (Treatment A): Study drug(s) were administered with food and with 240 mL of water. Following an overnight fast (no food or drinks except water for at least 10 hours), a meal was initiated 30 minutes prior to study drug administration. The dose was administered at or within 5 minutes of the subjects completing (100%) of the provided high-fat meal containing ˜800-1000 kcal with -50% of calories from fat (approximately 150, 250, and 500-600 kcal from protein, carbohydrate, and fat, respectively). Subjects fasted for 4 hours after study drug administration. A meal (standardized lunch) was provided to subjects after the 4-hour post-dose blood draw. Additionally, water and other fluids was withheld 1 hour before until 2 hours after dose administration other than the water provided with dosing and beverages provided with the standardized meal (where applicable). Water may be consumed by subjects following the 2-hour blood draw for the remainder of the collection period.
# Cohort 10 (Compound 1 100 mg, formulation 9 in Table 3): […]
# [3] = Effect of acid-reducing agent (famotidine) on PK of Compound 1 single agent tablet, Cohort 11; type: in vivo, human; details: for AUC(0-inf): human, in vivo, oral, fasted, N=20
# Method: The objective of Cohort 11 was to assess the effect of gastric acid reducing agents (ARAs) on the PK of Compound 1 single agent tablet using famotidine, a representative H2RA. Compound 1 100 mg strength tablets (as free form equivalent) were used. Famotidine was obtained from a commercially available source.
# Treatment J: Single dose of Compound 1 (1×100 mg tablet) administered orally in the morning in the fasted state.
# Treatment K: Single dose of Compound 1 (1×100 mg tablet) administered orally in the morning 2 hours after famotidine (FAM) (1×40 mg) in the fasted state.
# as §3, with “Study drug(s) were” for “Compound 1 was”, “period.” for “period. A meal (standardized lunch) is provided to subjects after the 4-hour post-dose blood draw.”
# [4] = in the drug product, Form I
# [5] = drug loads such as 5% and 8% compared to 20% drug load
structure (smiles),measurement,setting,value
"O=C(O)c1ccnc(N2CC(O)(c3ccc(OCc4c(-c5c(Cl)cccc5Cl)noc4C4CC4)cc3Cl)C2)c1 [Compound 1, cilofexor]",Compound 1 exposure,[1]; [5],increased Compound 1 exposure
same,Variability of Compound 1 exposure,[1]; [5],reduction in variability
same,AUC(0-inf),"[1]; 30 mg, 30 mg single dose, 5% drug load",2470 ng·h/mL
same,AUC(0-inf),"[1]; 30 mg, 30 mg single dose, 20% drug load",1870 ng·h/mL
same,AUC(0-inf),"[1]; 100 mg, 100 mg single dose, 8% drug load",7480 ng·h/mL
same,AUC(0-inf),"[1]; 100 mg, 100 mg single dose, 12% drug load",7650 ng·h/mL
same,AUC(0-inf),"[1]; 100 mg, 100 mg single dose, 20% drug load",7740 ng·h/mL
same,% GLSM Ratio (90% CI),"[2]; 10 mg (5% drug load), AUCinf moderate-fat meal vs fasted",74.9%
same,% GLSM Ratio (90% CI),"[2]; 30 mg (20% drug load), AUCinf high-fat meal (+ SEL 18 mg) vs fasted",142%
same,% GLSM Ratio (90% CI),"[2]; 30 mg (20% drug load), AUCinf light-fat meal vs fasted",37.5%
same,% GLSM Ratio (90% CI),"[2]; 100 mg (12% drug load), AUCinf high-fat meal vs fasted",91.9%
same,% GLSM Ratio (90% CI),"[2]; 100 mg (12% drug load), AUCinf light-fat meal vs fasted",65.7%
same,% GLSM Ratio (90% CI),"[2]; 100 mg (20% drug load), AUCinf moderate-fat meal vs fasted",76.6%
same,Effect of food on Compound 1 exposure,[2]; high-fat meal,increasing
same,AUC(0-inf),"[2]; 10 mg, 10 mg (5% drug load), fasted, N=12, read-out: Compound 1 AUCinf (% CV) Fasted",1260 ng·h/mL
same,AUC(0-inf),"[2]; 10 mg, 10 mg (5% drug load), moderate-fat meal, N=11, read-out: Compound 1 AUCinf (% CV) Fed",924 ng·h/mL
same,AUC(0-inf),"[2]; 30 mg (20% drug load), high-fat meal, + SEL 18 mg, N=20, read-out: Compound 1 AUCinf (% CV) Fed",1920 ng·h/mL
same,AUC(0-inf),"[2]; 30 mg, 30 mg (20% drug load), fasted, N=20, read-out: Compound 1 AUCinf (% CV) Fasted",1870 ng·h/mL
same,AUC(0-inf),"[2]; 30 mg, 30 mg (20% drug load), light-fat meal, N=30, read-out: Compound 1 AUCinf (% CV) Fed",608 ng·h/mL
same,AUC(0-inf),"[2]; 100 mg, 100 mg (12% drug load), fasted, N=20, read-out: Compound 1 AUCinf (% CV) Fasted",7650 ng·h/mL
same,AUC(0-inf),"[2]; 100 mg, 100 mg (12% drug load), high-fat meal, N=20, read-out: Compound 1 AUCinf (% CV) Fed",5930 ng·h/mL
same,AUC(0-inf),"[2]; 100 mg, 100 mg (12% drug load), light-fat meal, N=20, read-out: Compound 1 AUCinf (% CV) Fed",4170 ng·h/mL
same,AUC(0-inf),"[2]; 100 mg, 100 mg (20% drug load), fasted, N=12, read-out: Compound 1 AUCinf (% CV) Fasted",7740 ng·h/mL
same,AUC(0-inf),"[2]; 100 mg, 100 mg (20% drug load), moderate-fat meal, N=12, read-out: Compound 1 AUCinf (% CV) Fed",5020 ng·h/mL
same,Effect of food on Compound 1 exposure,[2]; light-fat and moderate-fat meals,reducing
same,Variability of Compound 1 exposure,[2]; light-fat meal,did not reduce variability
same,Variability of Compound 1 exposure,"[2]; moderate- and high-fat meals compared to fasted administration, irrespective of % drug load",reduced the variability
same,"Paired comparison of Compound 1 exposure, percent change with high-fat meal",[2]; subjects with low exposure fasted or with light-fat meal vs subjects with high exposure,greater percent increases in exposure
same,% GLSM Ratio (90% CI),"[3]; 100 mg (12% drug load), AUCinf with famotidine vs alone","320 (263, 390) %"
same,Bioavailability of Compound 1 with famotidine pre-treatment,"[3]; administered two hours after famotidine, 12% drug load",increase in bioavailability
same,AUC(0-inf),"[3]; 100 mg (12% drug load), 2 hours after famotidine 40 mg, read-out: Compound 1 AUCinf (% CV) with Famotidine (Test)",13600 ng·h/mL
same,AUC(0-inf),"[3]; 100 mg (12% drug load), read-out: Compound 1 AUCinf (% CV) Alone (Reference)",4490 ng·h/mL
NC(CO)(CO)CO.O=C(O)c1ccnc(N2CC(O)(c3ccc(OCc4c(-c5c(Cl)cccc5Cl)noc4C4CC4)cc3Cl)C2)c1 [tromethamine salt of Compound 1],Chemical and physical stability,[4],suitable chemical and physical stability

# Source: patent US20220370366A1, “TABLETS CONTAINING CILOFEXOR AND PHARMACEUTICALLY ACCEPTABLE CARRIERS” (Gilead Sciences, Inc., priority 2019, published 2022)
